Values quoted from earlier work in patent US7825087B2 (Elan Pharma International Limited, priority 2005, dated 2010).

Columns and labels:
[1] = tested on: bone marrow; conditions: animal models or man
[2] = distribution in blood, concentration dependent

[R—[R*,R*-(E)]]-cyclic (L-alanyl-D-alanyl-N-methyl-L-leucyl-N-methyl-L-leucyl-N-methyl-L-valyl-3-hydroxy-N,4-dimethyl-L-2-amino-6-octenoyl-L-(alpha)-amino-butyryl-N-methylglycyl-N-methyl-L-leucyl-L-valyl-N-methyl-L-leucyl) [cyclosporine]
bone marrow suppression [1]: does not cause bone marrow suppression | fraction in erythrocytes [2]: 41%-58% | fraction in granulocytes [2]: 5%-12% | fraction in lymphocytes [2]: 4%-9%
